Measured values taken from patent US12616704B2, “Cannabichromene formulation for pain management” (Zyus Life Sciences Inc., priority 2020, dated 2026).

Assays:
Assay type in all cases: in vivo, C57BL/6J mice
[1] = Welfare observations in OIPN study; details: Duloxetine 25 mg/kg i.p., OIPN mice
Source text: Seven mice were disqualified from further study due to showing too mild cool allodynia.

[2] = test system: Oxaliplatin-induced cool allodynia; test: Acetone Cooling Test (ACT) in oxaliplatin-induced polyneuropathy (OIPN) model; details: CBC 20 mg/kg p.o., Duloxetine 25 mg/kg i.p.
Description: Model Induction—Mouse Oxaliplatin-induced polyneuropathy (OIPN) model was induced over a three-week period. The day of first Oxaliplatin (OXP) injection is referred to as day 0 (DO). OXP was administered as six separate intraperitoneal injections at 4.5-mg/kg (10 ml/kg, i.p.) to Groups 2, 3, and 4 on DO, D4, D8, D12, D16, and D20. The cumulative OXP dose was thus 27 mg/kg. The in-life procedures, such as observations, tests, and/or measurements were performed by Charles River Discovery Services with blinded methods. The mice were distributed into 4 groups (n=8 for Vehicle Control; n=10 OXP Control; n=20 CBC; n=15 Duloxetine).
Treatments—Following exposure to OXP for 20 days, Groups 3 and 4 were treated with CBC (20 mg/kg, p.o.) and Duloxetine (25 mg/kg, i.p.), respectively, for 10 consecutive days. In a similar regimen Groups 1 and 2 (Vehicle Control and OXP-Vehicle Control, respectively) received a corresponding volume of 5% glucose solution at an administration volume of 10 mL/kg.
Acetone Cooling Test (ACT) —To produce a measurable cooling sensation, 10-15 μL of acetone was applied onto the medial area of the plantar hind paw with a 0.5 ml insulin syringe. Responses of a mouse to acetone were monitored for 20 s, and a score given based on a four-point scale (0-3 points), according to the response intensity, continuation, and briskness. The higher the score, the greater the cool allodynia sensed by the mouse.
Within one test timepoint, a total of 3 trials were performed per paw with a minimum gap of 5 min between testing. The three individual scores were added up to obtain a single score over a cumulative period of 60 s. Thus, for one test, the minimum score of one paw is 0 (no cool allodynia), while the maximum possible score is 9 (intensive cool allodynia). The total scores for the left and right paws were averaged to accomplish a single result value per mouse at each timepoint.
The Acetone Cooling Test was performed prior to OXP administration (Baseline), following the last OXP injection (D21), one day after the first CBC, Duloxetine, or Vehicle treatment (D22), and after a 10-day daily dosing of CBC, Duloxetine, or Vehicle treatment (D31). Taken together, the ACT was used to assess chemotherapy-induce cool allodynia as stated in the schedule:
On D22: At 60 min after the first Vehicle/CBC dose and 120 min after Dulx dose.
On D31: At 60 min after the last Vehicle/CBC and 120 min after Dulx dose.

[3] = Body weight in OIPN study; details: OIPN mice; CBC 20 mg/kg p.o., Duloxetine 25 mg/kg i.p.
Description: Body Weight—Animal body weights were measured before assigning the treatment groups and then on each day of the study. The last body weight measurement was performed upon endpoint sampling. Terminal body weights were not collected from animals found dead or euthanized moribund.

CNCC[C@H](Oc1cccc2ccccc12)c1cccs1 [Duloxetine, reference compound]
share of the group with adverse effects (enlarged staring eyes and clearly decreased activity) [1]: 30%
ACT score compared with OXP-Vehicle control ([2]; D22, acute single dose): statistically significant and comparable reduction in cool allodynia
ACT score compared with OXP-Vehicle control ([2]; D31, chronic repeated dosing): maintained a significant reduction in cool allodynia
ACT score, D31 vs. D21 ([2]; within group, 10-day repeated dosing): significant reduction of cool allodynia
ACT score, reversion of cool allodynia D22 vs. D21 pre-treatment: p ([2]; within group, single dose): < 0.01
body weight development from D22 onwards [3]: slower increase in body weight
